Test results reported in ChEMBL document CHEMBL4308877, “Thiazole, thio and semicarbazone derivatives against tropical infective diseases: Chagas disease, human African trypanosomiasis (HAT), leishmaniasis, and malaria” (Eur J Med Chem, 2019).
Values belong to the compound of their own block, whether it stands above or below them.

Tests used:
[1] = test system: Trypanosoma brucei brucei; assay: Anti-parasitic activity against Trypanosoma brucei brucei AnTat1.1E; type: functional, organism-based
[2] = Selectivity index, ratio of IC50 for HEK293T cells to IC50 for Trypanosoma brucei brucei AnTat1.1E; type: toxicity; settings: human
[3] = test system: Trypanosoma brucei rhodesiense; assay: Anti-parasitic activity against Trypanosoma brucei rhodesiense STIB 851; type: functional, organism-based
[4] = Selectivity index, ratio of IC50 for HEK293T cells to IC50 for Trypanosoma brucei rhodesiense STIB 851; type: toxicity; settings: human
[5] = test system: Trypanosoma brucei gambiense; assay: Anti-parasitic activity against Trypanosoma brucei gambiense MBA; type: functional, organism-based
[6] = Selectivity index, ratio of IC50 for HEK293T cells to IC50 for Trypanosoma brucei gambiense MBA; type: toxicity; settings: human
MKN-45 = assay: Cytotoxicity against human MKN45 cells assessed as reduction in cell viability after 72 hrs by MTT assay; type: functional, cell-based; settings: MKN-45, 72 h
HT-29 = assay: Cytotoxicity against human HT-29 cells assessed as reduction in cell viability after 72 hrs by MTT assay; type: functional, cell-based; settings: HT-29, 72 h
MDA-MB-231 = assay: Cytotoxicity against human MDA-MB-231 cells assessed as reduction in cell viability after 72 hrs by MTT assay; type: functional, cell-based; settings: MDA-MB-231, 72 h
A549 = assay: Cytotoxicity against human A549 cells assessed as reduction in cell viability after 72 hrs by MTT assay; type: functional, cell-based; settings: A549, 72 h
NCI-H460 = assay: Cytotoxicity against human H460 cells assessed as reduction in cell viability after 72 hrs by MTT assay; type: functional, cell-based; settings: NCI-H460, 72 h
WI-38 = assay: Cytotoxicity against human WI38 cells assessed as reduction in cell viability after 72 hrs by MTT assay; type: cell-based; settings: WI-38, 72 h
[7] = target: Hepatocyte growth factor receptor (Homo sapiens) (UniProt P08581); assay: Inhibition of recombinant N-terminal His6-tagged human c-MET (974 to end residues) expressed in baculovirus infected Sf21 cells at 10 uM using peptide as substrate preincubated for 1 hr followed by substrate addition measured after 20 mins by HTRF assay relative to control
[8] = target: Vascular endothelial growth factor receptor 2 (Homo sapiens) (UniProt P35968); assay: Inhibition of recombinant GST-tagged human KDR (789 to end residues) expressed in baculovirus infected Sf9 cells at 10 uM using peptide as substrate preincubated for 1 hr followed by substrate addition measured after 20 mins by HTRF assay relative to control
[9] = target: Platelet-derived growth factor receptor alpha (Homo sapiens) (UniProt P16234); assay: Inhibition of recombinant GST-tagged human PDGFRalpha (550 to 1089 residues) cytoplasmic domain expressed in baculovirus expression system at 10 uM using peptide as substrate preincubated for 1 hr followed by substrate addition measured after 20 mins by HTRF assay relative to control
[10] = target: RAF proto-oncogene serine/threonine-protein kinase (Homo sapiens) (UniProt P04049); assay: Inhibition of c-Raf (unknown origin) at 10 uM using peptide as substrate preincubated for 1 hr followed by substrate addition measured after 20 mins by HTRF assay relative to control
Leishmania amazonensis [11] = assay: Anti-parasitic activity against promastigote stage of Leishmania amazonensis WHOM/00 LTB 0016 after 96 hrs; type: functional, organism-based; settings: WHOM/00 LTB 0016, 96 h
[12] = Selectivity index, ratio of CC50 for mouse macrophages to IC50 for promastigote stage of Leishmania amazonensis WHOM/00 LTB 0016; type: toxicity; settings: read-out: Ratio CC50/IC50
Leishmania amazonensis [13] = assay: Anti-parasitic activity against amastigote stage of Leishmania amazonensis WHOM/00 LTB 0016 infected in mouse macrophages after 24 hrs; type: functional, organism-based; settings: WHOM/00 LTB 0016, 24 h
[14] = Selectivity index, ratio of CC50 for mouse macrophages to IC50 for amastigote stage of Leishmania amazonensis WHOM/00 LTB 0016; type: toxicity; settings: read-out: Ratio CC50/IC50
Leishmania infantum [15] = assay: Anti-parasitic activity against promastigote stage of Leishmania infantum MHOM/BR/BH 46 after 72 hrs by Neubauer chamber method; type: functional, organism-based; settings: MHOM/BR/BH 46, 72 h
Leishmania infantum [16] = assay: Anti-parasitic activity against amastigote stage of Leishmania infantum MHOM/BR/BH 46 infected in macrophages after 24 hrs by Giemsa staining based method; type: functional, organism-based; settings: MHOM/BR/BH 46, 24 h
[17] = Selectivity index, ratio of CC50 for mouse J774 cells to IC50 for promastigote stage of Leishmania infantum MHOM/BR/BH 46; type: toxicity; settings: read-out: Ratio CC50/IC50
[18] = Selectivity index, ratio of cytotoxic activity for macrophages (unknown origin) to IC50 for amastigote stage of Leishmania infantum MHOM/BR/BH 46; type: toxicity; settings: read-out: Ratio CC50/IC50
Trypanosoma cruzi [19] = assay: Anti-parasitic activity against amastigote stage of Trypanosoma cruzi Tulahuen CL2 infected in human MRC5 cells after 7 days by […] reporter gene assay; type: functional, organism-based; settings: Tulahuen CL2, MRC5, 168 h
[20] = Selectivity index, ratio of cytotoxic activity for African green monkey Vero cells to IC50 for amastigote stage of Trypanosoma cruzi Tulahuen CL2; type: toxicity
Leishmania amazonensis [21] = assay: Anti-parasitic activity against promastigote stage of Leishmania amazonensis MHOM/BR/Josefa […] after 72 hrs by Neubauer chamber method; type: functional, organism-based
[22] = Selectivity index, ratio of CC50 for mouse J774A1 cells to IC50 for promastigote stage of Leishmania amazonensis MHOM/BR/Josefa; type: toxicity; settings: read-out: Ratio CC50/IC50
Leishmania amazonensis [23] = assay: Anti-parasitic activity against axenic amastigote stage of Leishmania amazonensis MHOM/BR/Josefa […] after 72 hrs by Neubauer chamber method; type: functional, organism-based
[24] = Selectivity index, ratio of CC50 for mouse J774A1 cells to IC50 for axenic amastigote stage of Leishmania amazonensis MHOM/BR/Josefa; type: toxicity; settings: read-out: Ratio CC50/IC50
Leishmania amazonensis [25] = assay: Anti-parasitic activity against amastigote stage of Leishmania amazonensis MHOM/BR/Josefa infected in BALB/c mouse Peritoneal macrophages after 48 hrs by Giemsa staining-based method; type: functional, organism-based
[26] = Selectivity index, ratio of CC50 for mouse J774A1 cells to IC50 for amastigote stage of Leishmania amazonensis infected in BALB/c mouse Peritoneal macrophages; type: toxicity; settings: read-out: Ratio CC50/IC50
[27] = test system: Trypanosoma brucei brucei; assay: Anti-parasitic activity against trypomastigote stage of Trypanosoma brucei brucei; type: functional, organism-based
[28] = Selectivity index, ratio of IC50 for human WI38 cells to IC50 for trypomastigote stage of Trypanosoma brucei brucei; type: toxicity; settings: read-out: Ratio IC50
Trypanosoma cruzi [29] = assay: Anti-parasitic activity against trypomastigote stage of Trypanosoma cruzi Y infected in monkey LLC-MK2 cells after 24 hrs; type: functional, organism-based; settings: LLC-MK2, 24 h
[30] = Selectivity index, ratio of cytotoxic activity for monkey LLC-MK2 cells to IC50 for trypomastigote stage of Trypanosoma cruzi Y; type: toxicity
Trypanosoma brucei [31] = assay: Anti-parasitic activity against wild type Trypanosoma brucei; type: functional, organism-based
[32] = Selectivity index, ratio of IC50 for human SK-N-SH cells to IC50 for wild type Trypanosoma brucei; type: toxicity; settings: read-out: Ratio IC50
Trypanosoma brucei [33] = assay: Anti-parasitic activity against type 1 nitroreductase over-expressing Trypanosoma brucei; type: functional, organism-based
[34] = Selectivity index, ratio of IC50 for human THP1 cells to IC50 for Trypanosoma brucei overexpressing the type 1 nitroreductase; type: toxicity; settings: read-out: Ratio IC50

Platelet-derived growth factor receptor alpha (Homo sapiens), sequence (P16234 whole entry, the tested form may be a part): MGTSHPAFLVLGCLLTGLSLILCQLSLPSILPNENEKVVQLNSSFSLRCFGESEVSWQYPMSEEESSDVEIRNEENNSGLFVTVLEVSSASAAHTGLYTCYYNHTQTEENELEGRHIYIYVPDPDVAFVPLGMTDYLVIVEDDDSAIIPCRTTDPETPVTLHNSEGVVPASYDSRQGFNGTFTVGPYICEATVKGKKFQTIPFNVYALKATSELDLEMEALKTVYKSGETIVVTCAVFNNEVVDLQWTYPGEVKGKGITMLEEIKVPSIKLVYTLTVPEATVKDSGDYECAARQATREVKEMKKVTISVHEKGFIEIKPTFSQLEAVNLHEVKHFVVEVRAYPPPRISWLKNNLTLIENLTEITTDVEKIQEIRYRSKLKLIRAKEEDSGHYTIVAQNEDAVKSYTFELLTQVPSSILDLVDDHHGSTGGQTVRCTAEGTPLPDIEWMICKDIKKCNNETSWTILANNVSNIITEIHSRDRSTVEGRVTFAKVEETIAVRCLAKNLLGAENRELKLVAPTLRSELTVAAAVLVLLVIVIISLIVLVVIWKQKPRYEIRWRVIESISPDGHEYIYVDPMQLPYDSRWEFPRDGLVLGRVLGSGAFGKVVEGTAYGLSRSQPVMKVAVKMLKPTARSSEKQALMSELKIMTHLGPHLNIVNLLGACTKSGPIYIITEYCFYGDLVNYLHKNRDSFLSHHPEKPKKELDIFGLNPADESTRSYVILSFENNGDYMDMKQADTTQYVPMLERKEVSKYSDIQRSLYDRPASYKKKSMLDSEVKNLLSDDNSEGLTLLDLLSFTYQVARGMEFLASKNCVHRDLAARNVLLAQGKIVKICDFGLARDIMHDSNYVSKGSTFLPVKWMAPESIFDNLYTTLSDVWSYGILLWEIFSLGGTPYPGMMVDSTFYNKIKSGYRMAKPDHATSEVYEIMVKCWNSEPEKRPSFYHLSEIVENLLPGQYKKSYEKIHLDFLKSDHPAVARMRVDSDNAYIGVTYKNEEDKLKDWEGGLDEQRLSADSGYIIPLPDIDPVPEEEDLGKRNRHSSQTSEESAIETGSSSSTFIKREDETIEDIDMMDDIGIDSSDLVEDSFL
RAF proto-oncogene serine/threonine-protein kinase (Homo sapiens), sequence (P04049 whole entry): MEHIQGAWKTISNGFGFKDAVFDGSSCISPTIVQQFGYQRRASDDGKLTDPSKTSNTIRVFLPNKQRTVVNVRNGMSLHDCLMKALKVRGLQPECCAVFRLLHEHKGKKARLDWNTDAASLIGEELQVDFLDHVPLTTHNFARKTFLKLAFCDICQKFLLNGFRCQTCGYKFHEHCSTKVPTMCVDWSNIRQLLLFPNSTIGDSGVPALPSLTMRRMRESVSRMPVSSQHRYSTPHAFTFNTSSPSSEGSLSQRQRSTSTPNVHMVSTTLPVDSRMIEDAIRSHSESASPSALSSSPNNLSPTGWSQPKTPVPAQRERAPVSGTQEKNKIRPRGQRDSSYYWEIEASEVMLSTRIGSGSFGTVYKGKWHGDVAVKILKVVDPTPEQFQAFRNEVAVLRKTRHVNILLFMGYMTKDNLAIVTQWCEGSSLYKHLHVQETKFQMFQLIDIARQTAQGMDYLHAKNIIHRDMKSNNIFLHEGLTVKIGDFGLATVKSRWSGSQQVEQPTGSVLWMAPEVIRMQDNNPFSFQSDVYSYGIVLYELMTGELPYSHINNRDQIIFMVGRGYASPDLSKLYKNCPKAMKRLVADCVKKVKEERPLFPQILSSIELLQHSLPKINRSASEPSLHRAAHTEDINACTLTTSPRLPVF
Vascular endothelial growth factor receptor 2 (Homo sapiens), sequence (P35968 whole entry, the tested form may be a part): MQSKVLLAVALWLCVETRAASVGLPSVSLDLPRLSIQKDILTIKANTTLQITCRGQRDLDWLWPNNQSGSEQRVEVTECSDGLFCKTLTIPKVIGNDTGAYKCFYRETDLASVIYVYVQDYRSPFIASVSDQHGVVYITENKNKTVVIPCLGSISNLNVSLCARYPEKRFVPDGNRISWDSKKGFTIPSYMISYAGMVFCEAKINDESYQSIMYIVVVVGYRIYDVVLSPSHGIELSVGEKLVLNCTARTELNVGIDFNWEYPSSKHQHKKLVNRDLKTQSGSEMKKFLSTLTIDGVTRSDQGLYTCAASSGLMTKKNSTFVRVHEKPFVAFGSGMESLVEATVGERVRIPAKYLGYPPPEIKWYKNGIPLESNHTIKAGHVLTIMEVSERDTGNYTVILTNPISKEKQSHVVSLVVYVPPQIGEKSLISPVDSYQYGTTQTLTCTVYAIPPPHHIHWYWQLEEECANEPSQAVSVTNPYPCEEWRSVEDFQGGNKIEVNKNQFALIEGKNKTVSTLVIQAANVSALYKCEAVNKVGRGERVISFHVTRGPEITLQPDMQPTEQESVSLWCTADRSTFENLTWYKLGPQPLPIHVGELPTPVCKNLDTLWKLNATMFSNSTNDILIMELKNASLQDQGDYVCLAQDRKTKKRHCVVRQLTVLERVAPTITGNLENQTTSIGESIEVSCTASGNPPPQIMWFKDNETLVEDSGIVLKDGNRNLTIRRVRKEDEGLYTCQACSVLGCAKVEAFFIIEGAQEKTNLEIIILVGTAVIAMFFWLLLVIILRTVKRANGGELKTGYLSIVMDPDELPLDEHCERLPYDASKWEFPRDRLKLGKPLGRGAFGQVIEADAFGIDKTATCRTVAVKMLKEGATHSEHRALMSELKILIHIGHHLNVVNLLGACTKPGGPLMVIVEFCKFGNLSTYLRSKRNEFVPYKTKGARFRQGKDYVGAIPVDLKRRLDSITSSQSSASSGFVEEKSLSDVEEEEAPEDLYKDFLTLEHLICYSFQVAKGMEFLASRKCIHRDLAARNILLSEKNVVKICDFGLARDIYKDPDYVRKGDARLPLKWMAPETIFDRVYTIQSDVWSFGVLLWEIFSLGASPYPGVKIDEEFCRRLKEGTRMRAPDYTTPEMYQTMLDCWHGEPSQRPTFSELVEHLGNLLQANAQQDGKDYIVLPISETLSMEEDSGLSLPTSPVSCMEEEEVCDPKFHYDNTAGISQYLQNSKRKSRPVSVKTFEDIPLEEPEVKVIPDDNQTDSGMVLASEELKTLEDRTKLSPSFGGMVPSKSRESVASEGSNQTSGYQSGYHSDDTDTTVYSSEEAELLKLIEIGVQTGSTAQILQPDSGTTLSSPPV
Hepatocyte growth factor receptor (Homo sapiens), sequence (P08581 whole entry): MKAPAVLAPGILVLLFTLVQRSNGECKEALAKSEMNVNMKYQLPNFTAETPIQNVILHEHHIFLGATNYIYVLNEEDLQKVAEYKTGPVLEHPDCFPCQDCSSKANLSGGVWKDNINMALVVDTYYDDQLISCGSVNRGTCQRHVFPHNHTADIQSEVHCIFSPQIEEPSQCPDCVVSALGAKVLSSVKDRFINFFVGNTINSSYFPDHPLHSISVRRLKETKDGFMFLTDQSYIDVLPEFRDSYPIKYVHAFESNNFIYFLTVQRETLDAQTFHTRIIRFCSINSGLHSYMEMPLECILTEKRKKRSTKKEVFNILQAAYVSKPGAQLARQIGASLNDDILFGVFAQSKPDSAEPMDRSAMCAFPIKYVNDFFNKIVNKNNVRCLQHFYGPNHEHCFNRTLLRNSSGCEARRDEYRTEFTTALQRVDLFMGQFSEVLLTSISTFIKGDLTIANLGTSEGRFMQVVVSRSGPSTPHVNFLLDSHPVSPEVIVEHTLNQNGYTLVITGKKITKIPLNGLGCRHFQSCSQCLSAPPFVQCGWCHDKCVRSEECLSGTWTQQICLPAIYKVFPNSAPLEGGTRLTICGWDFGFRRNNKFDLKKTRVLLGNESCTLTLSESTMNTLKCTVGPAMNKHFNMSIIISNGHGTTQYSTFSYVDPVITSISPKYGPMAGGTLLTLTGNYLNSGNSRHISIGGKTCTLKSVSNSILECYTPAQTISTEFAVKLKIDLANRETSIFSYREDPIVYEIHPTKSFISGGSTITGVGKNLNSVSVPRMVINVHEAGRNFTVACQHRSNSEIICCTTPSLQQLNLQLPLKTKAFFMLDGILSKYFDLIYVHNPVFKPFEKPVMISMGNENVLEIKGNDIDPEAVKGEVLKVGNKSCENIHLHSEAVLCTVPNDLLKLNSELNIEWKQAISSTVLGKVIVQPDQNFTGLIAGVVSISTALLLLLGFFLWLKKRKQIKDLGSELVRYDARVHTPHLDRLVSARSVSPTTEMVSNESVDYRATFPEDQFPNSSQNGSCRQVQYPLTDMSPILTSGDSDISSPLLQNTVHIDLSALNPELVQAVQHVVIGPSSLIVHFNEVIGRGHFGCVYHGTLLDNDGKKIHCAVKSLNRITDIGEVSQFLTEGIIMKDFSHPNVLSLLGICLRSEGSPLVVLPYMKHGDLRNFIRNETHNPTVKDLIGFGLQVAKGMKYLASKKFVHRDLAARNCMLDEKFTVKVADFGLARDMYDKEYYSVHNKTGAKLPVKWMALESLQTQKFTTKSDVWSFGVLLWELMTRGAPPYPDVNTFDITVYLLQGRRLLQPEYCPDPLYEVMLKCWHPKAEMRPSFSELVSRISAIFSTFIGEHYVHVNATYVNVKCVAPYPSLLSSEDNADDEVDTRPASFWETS

Structure (SMILES): O=c1c2ccccc2sn1-c1ccccc1
IC50 [1]: 0.092 µM
selectivity ratio [2]: 174
IC50 [3]: 0.263 µM
selectivity ratio [4]: 60.8
IC50 [5]: 0.061 µM
selectivity ratio [6]: 262

Structure (SMILES): COc1cc2c(Oc3ccc(/C=N/NC(=O)Nc4ccccc4F)cc3F)ccnc2cc1OCCCN1CCCCC1
IC50 (MKN-45): 0.016 µM
IC50 (HT-29): 0.059 µM
IC50 (MDA-MB-231): 0.77 µM
IC50 (A549): 0.009 µM

Structure (SMILES): O=C(N/N=C/c1c(Cl)cccc1Cl)Nc1ccc(Oc2ccnc(-n3cnnn3)c2)c(F)c1
IC50 (MKN-45): 0.97 µM
IC50 (HT-29): 0.08 µM
IC50 (NCI-H460): 0.36 µM
IC50 (WI-38): 3.96 µM
inhibition [7]: 14%
inhibition [8]: 14%
inhibition [9]: 14%
inhibition [10]: 70.7%

Structure (SMILES): O=C1c2ccccc2C(=O)N1Nc1nc(-c2ccc3ccccc3c2)cs1
IC50 (Leishmania infantum [15]): 9.8 µM
IC50 (Leishmania infantum [16]): 5.2 µM
selectivity ratio [17]: 17.7
selectivity ratio [18]: 24

Structure (SMILES): CCOc1cccc2sc(N(Cc3cccnc3)C(=O)C3CCCCC3)nc12
IC50 (Trypanosoma cruzi [19]): 0.16 µM
selectivity ratio [20]: > 200

Structure (SMILES): O=C1c2ccccc2C(=O)N1Nc1nc(-c2ccc(Cl)cc2Cl)cs1
IC50 (Leishmania infantum [15]): 13.9 µM
IC50 (Leishmania infantum [16]): 22.3 µM
selectivity ratio [17]: 12.7
selectivity ratio [18]: 12

Structure (SMILES): CCC1S/C(=N/N=C(/COc2ccccc2)c2ccc(-c3ccccc3)cc2)NC1=O (centres undefined)
IC50 (Trypanosoma cruzi [29]): 10.8 µM
selectivity ratio [30]: > 21.6

Structure (SMILES): CC(=O)Nc1ncc([N+](=O)[O-])s1 [NITHIAMIDE]
IC50 (Trypanosoma brucei [31]): 4.67 µM
selectivity ratio [32]: > 21
IC50 (Trypanosoma brucei [33]): 0.58 µM
selectivity ratio [34]: 149

The next lines start with results.

IC50 (Leishmania amazonensis [11]): 6 µM
IC50 (Leishmania amazonensis [13]): 33 µM
Structure (SMILES): NC(=S)N/N=C(/COc1ccccc1)c1ccccc1
selectivity ratio [12]: 71.1
selectivity ratio [14]: 4.94

IC50 (Leishmania amazonensis [11]): 3.5 µM
IC50 (Leishmania amazonensis [13]): 34.3 µM
Structure (SMILES): COc1ccc(/C(COc2ccccc2)=N\NC(N)=S)cc1
selectivity ratio [12]: 44.4
selectivity ratio [14]: 4.5

IC50 (Leishmania amazonensis [21]): 3.8 µM
IC50 (Leishmania amazonensis [23]): 8 µM
IC50 (Leishmania amazonensis [25]): 7.7 µM
Structure (SMILES): CC1=CC[C@@H](C(C)(C)NC(=S)N/N=C/c2ccc([N+](=O)[O-])cc2)CC1
selectivity ratio [22]: 23.4
selectivity ratio [24]: 11.1
selectivity ratio [26]: 11.5

IC50 [27]: 10.9 µM
Structure (SMILES): CC1=C/C(=N/NC(=S)Nc2ccccc2)C(C(C)C)CC1 (centres undefined)
selectivity ratio [28]: 12.3

IC50 (Leishmania amazonensis [11]): 4.9 µM
IC50 (Leishmania amazonensis [13]): 40.3 µM
Structure (SMILES): NC(=S)N/N=C(/COc1ccccc1)c1ccc(Cl)cc1
selectivity ratio [12]: 22.8
selectivity ratio [14]: 2.77
